US6875421B2, “Method for detecting chitin-containing organisms” (Albert Einstein College of Medicine of Yeshiva University, priority 1997, dated 2005)

What was measured:
P. capitis nits = assay: Visualizing nits on human hair under UV light; conditions: hair with attached nits dipped into 1% solution for two minutes, examined wet under UV light
Source text: Human hair with attached P. capitis nits obtained as a waste product after barbering were obtained and dipped into a 1% solution of calcofluor white for two minutes. The hair was removed and examined wet under UV light. […] Identification was easy, specific, and totally unambiguous.

[1] = Toxicity: solution spread on dorsum of hands of volunteers; assay type: in vivo, human; conditions: 1% solution on dorsum of hands, 12 hours continuously
Protocol: The 1% solution was also spread on the dorsum of four hands of volunteers and allowed to remain continuously for 12 hours before being washed off.

deer ticks = assay: Visualizing deer ticks under long range UV light; parameters: species or system deer tick
Source text: Use as a visualizing agent for deer ticks was investigated as well. Live deer ticks were gathered from a wooded area in Westchester County, N.Y. and sprayed with a 1% solution of Calcofluor white. The ticks were placed on a white cotton sheet and exposed to long range UV light from a portable UV lamp.

Q: With `O=S(=O)(O)c1cc(Nc2nc(Nc3ccccc3)nc(N(CCO)CCO)n2)ccc1/C=C/c1ccc(Nc2nc(Nc3ccccc3)nc(N(CCO)CCO)n2)cc1S(=O)(=O)O` [calcofluor white] as the molecule, how does the “visualization of nits (fluorescence) under UV light” value (P. capitis nits) read?
A: The value was “clearly seen as brightly fluorescent white ovoid bodies”.

Q: What about the “physical reactions such as pruritus, erythema, induration or discoloration” value [1] of the same molecule?
A: The value was “did not provoke any physical reactions”.

Q: What about the “physical sensation on skin” value [1] of the same molecule?
A: Its value is “caused no physical sensation”.

Q: What about the “visualization of deer ticks (fluorescence) under long range UV light” value (deer ticks; live ticks sprayed with 1% solution, on white cotton sheet, portable UV lamp) of the same molecule?
A: Its value is “easily visualized as brightly fluorescent objects”.

Q: And the “fluorescence of deer ticks after subsequent spray” value (deer ticks; ticks without autofluorescence, then sprayed and exposed to ultraviolet light)?
A: Its value is “intense fluorescence”.
